Reference: ChEMBL document CHEMBL1156526, “Specificity and mechanism of action of EHT 1864, a novel small molecule inhibitor of Rac family small GTPases” (2007)
Calls of active or inactive are those of the source. No cut-off for these calls is given here.

How the values were obtained:
[1] = system: NIH3T3; experiment: Inhibition of platelet derived growth factor-induced lamellipodia formation in mouse NIH3T3 cells at 5 uM; type: functional
[2] = system: U-87 MG; experiment: Reduction of RhoA-GTPase level in platelet derived growth factor-induced human U87MG cells measured with GST-rhotekin-RBD by pulldown assay; type: functional, cell-based; settings: U-87MG ATCC
[3] = biological target: Ras-related C3 botulinum toxin substrate 1 (Mus musculus) (UniProt P63001); experiment: Effect on Rac1 binding to RhoGDI1 in mouse NIH3T3 cells by Western blot analysis; type: cell-based
[4] = system: NIH3T3; experiment: Inhibition on Tiam1 C1199 mutant-induced focus forming activity in mouse NIH3T3 cells at 5 uM; type: cell-based
[5] = system: NIH3T3; experiment: Inhibition of lysophosphatidic acid-induced actin stress fibers formation in mouse NIH3T3 cells at 5 uM; type: functional, cell-based
[6] = system: NIH3T3; experiment: Effect on interaction between Rac1 15A mutant and human Tiam1 C1199 mutant expressed in NIH3T3 cells by Western blot analysis; type: cell-based
[7] = system: NIH3T3; experiment: Inhibition of Ras-induced cell growth in H-Ras 61L expressing mouse NIH3T3 cells at 5 uM by MTT assay; type: cell-based
[8] = system: NIH3T3; experiment: Inhibition of H-Ras 61L mutant-induced focus formation in mouse NIH3T3 cells at 5 uM after 14 days; type: cell-based
[9] = system: NIH3T3; experiment: Inhibition on Rac1 61L […]-induced focus forming activity in mouse NIH3T3 cells at 5 uM; type: cell-based
[10] = system: NIH3T3; experiment: Inhibition of Rac1 61L mutant-induced cellular transformation in mouse NIH3T3 cells at 5 uM after 3 to 5 weeks; type: cell-based
[11] = biological target: Ras-related C3 botulinum toxin substrate 3 (Homo sapiens) (UniProt P60763); experiment: Binding affinity at Rac3 at 1 uM by fluorescence anisotropy
[12] = system: NIH3T3; experiment: Inhibition of bradykinin-induced filopodia formation in mouse NIH3T3 cells at 5 uM; type: functional, cell-based
[13] = biological target: Ras-related C3 botulinum toxin substrate 1 (Mus musculus) (UniProt P63001); experiment: Effect on Rac1 binding to RhoGDI2 in mouse NIH3T3 cells by Western blot analysis; type: cell-based
[14] = system: 293T; experiment: Effect on interaction between Rac1 15A mutant and human Tiam1 C1199 mutant expressed in 293T cells by Western blot analysis; type: cell-based
[15] = biological target: Cell division control protein 42 homolog (Homo sapiens) (UniProt P60953); experiment: Inhibition of platelet derived growth factor-induced endogenous association of Cdc42 with GST-PAK-RBD in human U87MG cells after 5 mins by Western blot analysis; type: cell-based; settings: U-87MG ATCC
[16] = biological target: Cell division control protein 42 homolog (Homo sapiens) (UniProt P60953); experiment: Inhibition of Cdc42-PAK-RBD complex formation in platelet derived growth factor-induced human U87MG cells at 50 uM by fluorescence anisotropy; type: cell-based; settings: U-87MG ATCC
[17] = biological target: Ras-related C3 botulinum toxin substrate 2 (Homo sapiens) (UniProt P15153); experiment: Binding affinity at Rac2 at 1 uM by fluorescence anisotropy
[18] = system: NIH3T3; experiment: Inhibition on Rac1 61L-induced focus forming activity in mouse NIH3T3 cells at 5 uM; type: cell-based
[19] = biological target: Cell division control protein 42 homolog (Homo sapiens) (UniProt P60953); experiment: Binding affinity at Cdc42 at 1 uM by fluorescence anisotropy
[20] = system: U-87 MG; experiment: Reduction of Rac1-GTPase level in platelet derived growth factor-induced human U87MG cells measured with GST-rhotekin-RBD by pulldown assay; type: functional, cell-based; settings: U-87MG ATCC
[21] = system: U-87 MG; experiment: Reduction of RhoA-GTPase level in platelet derived growth factor-induced human U87MG cells measured with GST-PAK-RBD by pulldown assay; type: functional, cell-based; settings: U-87MG ATCC
[22] = system: U-87 MG; experiment: Reduction of Cdc42-GTPase level in platelet derived growth factor-induced human U87MG cells measured with GST-rhotekin-RBD by pulldown assay; type: functional, cell-based; settings: U-87MG ATCC
[23] = system: U-87 MG; experiment: Reduction of Rac1-GTPase level in platelet derived growth factor-induced human U87MG cells measured with GST-PAK-RBD by pulldown assay; type: functional, cell-based; settings: U-87MG ATCC
[24] = system: U-87 MG; experiment: Reduction of Cdc42-GTPase level in platelet derived growth factor-induced human U87MG cells measured with GST-PAK-RBD by pulldown assay; type: functional, cell-based; settings: U-87MG ATCC

Chain of Cell division control protein 42 homolog (Homo sapiens) (P60953 whole entry, looked up): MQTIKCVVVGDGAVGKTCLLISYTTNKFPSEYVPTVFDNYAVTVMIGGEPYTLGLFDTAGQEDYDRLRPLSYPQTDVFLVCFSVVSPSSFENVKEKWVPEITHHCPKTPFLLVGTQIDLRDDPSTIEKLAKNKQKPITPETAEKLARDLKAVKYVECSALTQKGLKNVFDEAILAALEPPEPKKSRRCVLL

O=c1cc(CN2CCOCC2)occ1OCCCCCSc1ccnc2cc(C(F)(F)F)ccc12
inhibition at 5 µM [1]: 80%
Activity [2]: Active
Activity [3]: Active
Activity [4]: Active
Activity [5]: Active
Activity [6]: inactive
Activity [7]: Active
Activity [8]: inactive
Activity [9]: inactive
Activity [10]: Active
Activity [11]: Active
Activity [12]: Active
Activity [13]: Active
Activity [14]: inactive
Activity [15]: inactive
Activity [16]: inactive
Activity [17]: Active
inhibition [18]: 80%
Activity [19]: inactive

O=c1cc(CN2CCNCC2)occ1OCCCCCSc1ccnc2cc(C(F)(F)F)ccc12
Activity [20]: inactive
Activity [2]: inactive
Activity [21]: inactive
Activity [22]: inactive
Activity [23]: inactive
Activity [24]: inactive

CCN(CC)CCCC(C)Nc1nc(C)cc(Nc2ccc3nc(C)cc(N)c3c2)n1 (stereo unspecified)
Activity [10]: inactive
